The numbers were not newly measured in US20140309164A1, “DEUTERATED NUCLEOSIDE PRODRUGS USEFUL FOR TREATING HCV” (priority 2013, published 2014), which cites them from elsewhere.

The conditions of data set [1]: pulled from clinical trials.
The test system of a further data set is HCV. As to conditions: percent of the trial participants; several large clinical trials.

Take `COc1nc(N)nc2c1ncn2[C@@H]1O[C@H](COP(=O)(N[C@@H](C)C(=O)OCC(C)(C)C)Oc2cccc3ccccc23)[C@@H](O)[C@@]1(C)O` (some centres unmarked) [BMS-986094]: the “fatal adverse event in clinical trials” value in data set [1] is reported as “death of a patient due to heart failure”.

With `CC(C)OC(=O)[C@H](C)NP(=O)(OC[C@H]1O[C@@H](n2ccc(=O)[nH]c2=O)C(C)(F)C1O)Oc1ccccc1` (some centres unmarked) [Sovaldi, Sofosbuvir], the “sustained viral response (SVR) of twelve weeks” value with HCV is 50-90%. On to `CC(C)OC(=O)[C@H](C)NP(=S)(OC[C@H]1O[C@@H](n2ccc(=O)[nH]c2=O)[C@](C)(O)[C@@H]1O)Oc1ccccc1` (some centres unmarked) [VX-135], for which the “sustained viral response rate four weeks after the completion of treatment (SVR4), intent-to-treat analysis” value with HCV genotype 1 (200 mg VX-135 in combination with daclatasvir, treatment-naive genotype 1, 10 of 12) is 83%. Further, the “completion of treatment rate (SVR4)” value in the data set on HCV genotype 1 (eleven patients who completed 12 weeks of treatment, VX-135 in combination with daclatasvir) is reported as 91%. Moreover, in the data set on HCV genotype 1 (one patient, VX-135 in combination with daclatasvir), the serious adverse event entry was “serious adverse event of vomiting/nausea”.
